This is an account of results in ChEMBL document CHEMBL1150040 (Bioorg Med Chem Lett, 1995).

Molecules are shown by their SMILES.

What is called IC50 is the concentration that inhibits the measured activity by half.

Test [1] has as its target Protein kinase C delta type (Homo sapiens, UniProt Q05655). Nature of the test: Inhibition of human Protein kinase C delta.
The target of test [2] is T1, Protein kinase C epsilon type (Homo sapiens, UniProt Q02156).
T1 sequence (Q02156 whole entry): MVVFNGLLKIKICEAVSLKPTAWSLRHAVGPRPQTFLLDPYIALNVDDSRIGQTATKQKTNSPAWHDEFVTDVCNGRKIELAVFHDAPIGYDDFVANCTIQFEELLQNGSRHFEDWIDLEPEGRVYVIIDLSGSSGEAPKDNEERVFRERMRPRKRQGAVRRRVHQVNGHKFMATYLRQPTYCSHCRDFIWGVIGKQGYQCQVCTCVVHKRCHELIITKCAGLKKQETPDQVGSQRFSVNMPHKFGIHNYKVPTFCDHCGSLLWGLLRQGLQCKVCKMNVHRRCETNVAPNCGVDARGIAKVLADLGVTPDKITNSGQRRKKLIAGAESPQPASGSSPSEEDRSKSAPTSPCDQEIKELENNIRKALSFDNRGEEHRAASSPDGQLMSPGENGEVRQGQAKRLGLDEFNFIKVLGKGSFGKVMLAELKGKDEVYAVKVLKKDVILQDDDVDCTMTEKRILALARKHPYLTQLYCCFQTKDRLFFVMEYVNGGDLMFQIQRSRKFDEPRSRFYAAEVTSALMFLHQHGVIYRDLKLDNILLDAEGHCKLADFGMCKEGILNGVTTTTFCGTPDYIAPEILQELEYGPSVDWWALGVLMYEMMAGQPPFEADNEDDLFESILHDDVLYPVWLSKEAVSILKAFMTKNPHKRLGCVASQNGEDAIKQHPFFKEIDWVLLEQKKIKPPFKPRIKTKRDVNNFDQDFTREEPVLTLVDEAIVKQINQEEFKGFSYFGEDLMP
Nature of the test: Inhibition of human Protein kinase C epsilon.

In test [3] the target is Protein kinase C gamma type (Homo sapiens, UniProt P05129). Nature of the test: Inhibition of human Protein kinase C gamma.
Test [4] deals with T2, Protein kinase C zeta type (Homo sapiens, UniProt Q05513).
T2 sequence (Q05513 whole entry): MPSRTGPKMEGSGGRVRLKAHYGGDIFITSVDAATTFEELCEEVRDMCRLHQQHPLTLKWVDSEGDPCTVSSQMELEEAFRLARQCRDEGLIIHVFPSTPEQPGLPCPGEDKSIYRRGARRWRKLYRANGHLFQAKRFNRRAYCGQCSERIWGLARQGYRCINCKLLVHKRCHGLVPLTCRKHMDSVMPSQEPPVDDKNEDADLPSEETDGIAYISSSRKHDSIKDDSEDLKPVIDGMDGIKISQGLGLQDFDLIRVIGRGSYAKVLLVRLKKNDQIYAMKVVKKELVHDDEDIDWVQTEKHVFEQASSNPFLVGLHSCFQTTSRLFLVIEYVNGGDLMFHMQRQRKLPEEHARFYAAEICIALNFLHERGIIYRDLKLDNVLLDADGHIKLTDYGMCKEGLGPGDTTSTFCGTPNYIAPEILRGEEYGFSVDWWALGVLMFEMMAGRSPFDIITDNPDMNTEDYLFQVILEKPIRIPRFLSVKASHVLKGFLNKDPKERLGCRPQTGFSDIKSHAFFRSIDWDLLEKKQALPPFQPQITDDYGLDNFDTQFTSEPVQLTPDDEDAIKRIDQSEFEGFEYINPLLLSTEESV
In words: Inhibition of Protein kinase C zeta.

Test [5] has as its target Protein kinase C alpha type (Homo sapiens, UniProt P17252). In words: Inhibition of human Protein kinase C alpha.
The target of test [6] is Protein kinase C eta type (Homo sapiens, UniProt P24723). In words: Inhibition of human protein kinase C eta.
Sequence of Protein kinase C eta type (P24723 whole entry): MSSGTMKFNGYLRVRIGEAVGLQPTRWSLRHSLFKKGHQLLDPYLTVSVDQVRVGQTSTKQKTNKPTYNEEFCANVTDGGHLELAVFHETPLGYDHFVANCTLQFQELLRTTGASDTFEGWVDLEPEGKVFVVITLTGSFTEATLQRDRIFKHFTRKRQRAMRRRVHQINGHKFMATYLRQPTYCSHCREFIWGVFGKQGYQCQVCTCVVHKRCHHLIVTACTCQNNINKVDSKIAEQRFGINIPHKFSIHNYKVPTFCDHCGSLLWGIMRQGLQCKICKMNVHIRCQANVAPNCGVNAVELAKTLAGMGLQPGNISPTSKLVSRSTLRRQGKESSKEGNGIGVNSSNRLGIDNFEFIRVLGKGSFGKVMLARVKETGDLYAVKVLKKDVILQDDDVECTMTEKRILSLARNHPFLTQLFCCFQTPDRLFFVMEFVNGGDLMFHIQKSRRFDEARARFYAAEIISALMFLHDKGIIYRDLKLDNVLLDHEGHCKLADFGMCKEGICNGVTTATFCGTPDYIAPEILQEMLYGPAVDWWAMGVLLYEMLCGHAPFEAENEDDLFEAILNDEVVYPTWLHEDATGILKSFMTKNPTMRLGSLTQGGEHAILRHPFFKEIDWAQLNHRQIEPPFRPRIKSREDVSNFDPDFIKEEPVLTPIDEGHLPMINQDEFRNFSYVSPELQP
Test [7] deals with T3, Protein kinase C beta type (Homo sapiens, UniProt P05771). Nature of the test: Inhibition of human Protein kinase C beta 1.
T3 sequence (P05771 whole entry): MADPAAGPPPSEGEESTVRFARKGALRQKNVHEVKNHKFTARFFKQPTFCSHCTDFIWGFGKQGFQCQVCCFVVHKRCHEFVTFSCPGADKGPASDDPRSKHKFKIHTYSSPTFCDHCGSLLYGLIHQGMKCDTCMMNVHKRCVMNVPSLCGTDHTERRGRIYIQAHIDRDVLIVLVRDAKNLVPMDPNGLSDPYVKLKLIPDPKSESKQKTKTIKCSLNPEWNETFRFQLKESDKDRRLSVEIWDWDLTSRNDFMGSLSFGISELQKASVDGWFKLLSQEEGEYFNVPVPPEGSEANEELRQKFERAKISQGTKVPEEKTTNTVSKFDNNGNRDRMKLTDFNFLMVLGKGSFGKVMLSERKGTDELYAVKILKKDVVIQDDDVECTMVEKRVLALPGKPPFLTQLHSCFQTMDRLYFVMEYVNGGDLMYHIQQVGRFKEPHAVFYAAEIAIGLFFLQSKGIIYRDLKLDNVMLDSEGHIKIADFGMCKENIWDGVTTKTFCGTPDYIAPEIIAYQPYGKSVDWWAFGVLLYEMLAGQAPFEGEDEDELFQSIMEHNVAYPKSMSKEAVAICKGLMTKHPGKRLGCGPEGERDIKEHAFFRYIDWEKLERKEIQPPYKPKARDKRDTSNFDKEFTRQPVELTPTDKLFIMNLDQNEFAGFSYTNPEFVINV
Test [8] has as its target T3, Protein kinase C beta type. Nature of the test: Inhibition of human Protein kinase C beta 2.

Sequence of Protein kinase C delta type (Q05655 whole entry): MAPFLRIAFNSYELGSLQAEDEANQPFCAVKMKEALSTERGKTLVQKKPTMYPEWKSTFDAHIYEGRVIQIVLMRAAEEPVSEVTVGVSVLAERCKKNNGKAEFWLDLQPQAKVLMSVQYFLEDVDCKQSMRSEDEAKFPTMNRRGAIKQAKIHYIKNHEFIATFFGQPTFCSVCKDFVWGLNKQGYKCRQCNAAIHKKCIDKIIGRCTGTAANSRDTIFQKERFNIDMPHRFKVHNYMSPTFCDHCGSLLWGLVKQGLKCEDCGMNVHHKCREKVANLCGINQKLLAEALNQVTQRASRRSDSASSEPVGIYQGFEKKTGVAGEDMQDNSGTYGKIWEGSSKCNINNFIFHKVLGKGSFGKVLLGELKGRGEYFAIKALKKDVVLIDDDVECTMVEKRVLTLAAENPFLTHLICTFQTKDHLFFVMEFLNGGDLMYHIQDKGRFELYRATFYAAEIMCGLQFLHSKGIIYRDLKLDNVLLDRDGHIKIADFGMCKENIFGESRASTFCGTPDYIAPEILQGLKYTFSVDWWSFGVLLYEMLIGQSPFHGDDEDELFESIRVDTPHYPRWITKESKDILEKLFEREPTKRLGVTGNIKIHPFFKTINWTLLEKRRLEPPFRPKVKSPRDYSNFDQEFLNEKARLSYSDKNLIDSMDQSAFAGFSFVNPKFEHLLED

As to `O=C(N[C@@H]1CNC[C@H]1OC(=O)c1cc(O)c(C(=O)c2c(O)cccc2C(=O)O)c(O)c1)c1ccc(O)cc1`, the IC50 in test [1] was 5 nM; in test [2], 10 nM; in test [3] it was 13 nM; in test [4], greater than 150 nM; in test [5], 22 nM; in test [6], 4 nM. The IC50 in test [7] turned out to be 17 nM; in test [8], 33 nM.
Consider `O=C(N[C@@H]1CCC[C@H]1OC(=O)c1cc(O)c(C(=O)c2c(O)cccc2C(=O)O)c(O)c1)c1ccc(O)cc1`, for which the IC50 was determined as 0.9 nM in test [1]; 50 nM in test [2]; 10 nM in test [3]; 40 nM in test [5]; 0.6 nM in test [6]; 40 nM in test [7]. Further, in test [8], half-maximal inhibition (IC50) required 50 nM.
For `O=C(N[C@@H]1CNCC[C@H]1OC(=O)c1cc(O)c(C(=O)c2c(O)cccc2C(=O)O)c(O)c1)c1ccc(O)cc1`, the IC50 in test [1] is 50 nM; in test [2], 1800 nM; in test [3], 2200 nM; in test [4], greater than 150000 nM; in test [5] it was 5100 nM; in test [6], 80 nM. Moreover, the IC50 in test [7] came to 2200 nM; in test [8] it was 4700 nM.
Regarding `O=C(N[C@@H]1CCCCC[C@H]1OC(=O)c1cc(O)c(C(=O)c2c(O)cccc2C(=O)O)c(O)c1)c1ccc(O)cc1`, the IC50 is 90 nM in test [1]; 280 nM in test [2]; 60 nM in test [3]; greater than 150000 nM in test [4]; 270 nM in test [5]; 60 nM in test [6]. Further, the IC50 in test [7] amounted to 220 nM; in test [8], 430 nM.
As for `O=C(N[C@@H]1CNCCC[C@H]1OC(=O)c1cc(O)c(C(=O)c2c(O)cccc2C(=O)O)c(O)c1)c1ccc(O)cc1` (racemic) [BALANOL], the IC50 came to 32 nM in test [1]; 34 nM in test [3]; 3500 nM in test [4]; 74 nM in test [5]; 22 nM in test [6]; 32 nM in test [7]. The same compound had an IC50 in test [8] of 44 nM.
